The values below come from US6962928B2, “Tetrahydroquinoline derivatives for the inhibition of osteoporosis, estrogen dependent breast cancer, endometriosis and uterine fibrosis” (Eli Lilly and Company, priority 2001, dated 2005).

Molecules are shown by their SMILES.

The term EC50 denotes the concentration at which the effect is half-maximal. Higher therefore signals lower potency in that assay.

The assay relates to Ishikawa human endometrial tumor cells. In words: Ishikawa alkaline phosphatase assay. The format is cell-based. As to conditions: for EC50: Homo sapiens, Ishikawa; for EC50 / Agonist % Eff: agonist mode; for Agonist % Eff: % efficacy versus the response to Tamoxifen; for Antagonist % Eff: antagonist mode, % efficacy versus E2 (1 nM) alone. The text has this:
Ishikawa Alkaline Phosphatase Assay
Ishikawa human endometrial tumor cells are maintained in MEM (minimum essential medium, with Earle's salts and L-Glutamine, Gibco BRL, Gaithersburg, Md.), supplemented with 10% fetal bovine serum (FBS) (V/V), (Gibco BRL). One day prior to assay, growth media is changed to assay medium, DMEM/F-12 (3:1) (Dulbecco's Modified Eagle Medium: Nutrient Mixture F-12, 3:1 Mixture, phenol red-free, Gibco BRL) supplemented with 5% dextran coated charcoal stripped fetal bovine serum (DCC-FBS) (Hyclone, Logen, Utah), L-Glutamine (2 mM), MEM sodium pyruvate (1 mM), HEPES (N-[2-hydroxyethyl]piperazine-N′-[2-ethanesulfonic acid] 2 mM) all from Gibco BRL). After an overnight incubation, ishikawa cells are rinsed with Dulbecco's Phosphate Buffered Saline (1×) (D-PBS) without Ca^+2 and Mg^+2 (Gibco BRL), and trypsinized by a 3 minute incubation with 0.25% Trypsin/EDTA, phenol red-free (Gibco BRL). Cells are resuspended in assay medium and adjusted to 250,000 cells/ml. Approximately 25,000 cells in a 100 ul media are added to flat-bottom 96 wells microculture plates (Costar 3596) and incubated at 37° C. in a 5% CO2 humidified incubator for 24 hours. The next day, serial dilutions of compounds are prepared in assay medium (at 6 times the final concentration in the assay). The assay is run in dual mode, agonist and antagonist modes. For the agonist mode, plates receive 25 μl/well of assay medium followed by 25 μl/well of diluted compounds (at 6× the final concentrations). For the antagonist mode, plates receive 25 μl/well of 6 nM E2 (β-Estradiol, Sigma, St. Louis, Mo.) followed by 25 μl/well of diluted compounds (at 6× the final concentrations). After an additional 48-hour incubation at 37° C. in a 5% CO2 humidified incubator, media is aspirated from wells and 100 μl fresh assay medium is added to each microculture. Serial dilutions of compounds are prepared and added to the cells as described above. After an additional 72 hour incubation at 37° C. in a 5% CO2 humidified incubator, the assay is quenched by removing media and rinsing plates twice in Dulbecco's Phosphate Buffered Saline (1×) (D-PBS) (Gibco BRL). The plates are dried for 5 min and frozen at −70° C. for at least 1 hour. The plates are then removed from the freezer and allowed to thaw at room temperature. To each well, 100 μl of 1-Step™ PNPP (Pierce Chemical Company, Rockford, Ill.) is added. After a 20-minute incubation, plates are read on a spectophotometer at 405 nm. The data is fitted to a linear interpolation to derive EC50 (for agonist mode) or IC50 (for antagonist mode) values. For the agonist mode, a % efficacy for each compound is calculated versus the response to Tamoxifen. For the antagonist mode, a % efficacy for each compound is calculated versus E2 (1 nM) alone.

Turning to `Oc1ccc(C2CCc3cc(O)ccc3N2c2ccc(OCCN3CCCC3)cc2)cc1` (stereo not drawn) [Example 4], the EC50 amounted to 161 nM, the “Agonist % Eff” value is recorded as 36% and the “Antagonist % Eff” value came out at 40%.

With `Oc1ccc(C2CCc3cc(O)ccc3N2c2ccc(OCCN3CCCCC3)cc2)cc1` (stereo not drawn) [Example 3], the EC50 is 262 nM, the “Agonist % Eff” value is listed as 117% and the “Antagonist % Eff” value was −0.2%.
